# Measured values published in ChEMBL document CHEMBL5614415, “Recent advances and challenges of revolutionizing drug-resistant tuberculosis treatment” (Eur J Med Chem, 2024).
# Test system: Mycobacterium tuberculosis
# Experiment: Antimycobacterial activity against extensively drug resistant Mycobacterium tuberculosis assessed as reduction in microbial growth
# Type: functional
# Settings: not given
row,SMILES,MIC50 [µg/mL]
1,CCOc1ccc(Br)c2c1B(O)O[C@@H]2CN,0.4
2,Cl.NC[C@H]1OB(O)c2c(OCCO)ccc(Cl)c21,0.023
3,COc1ccc(Cl)c2c1B(O)O[C@@H]2CN,0.1
4,CCCCOc1ccc(Cl)c2c1B(O)O[C@@H]2CN,0.6
5,COc1ccc(Br)c2c1B(O)O[C@@H]2CN,0.1
6,NCC1OB(O)c2c(Oc3ccccc3)ccc(Cl)c21 (stereo not drawn),5
7,NC[C@@H]1OB(O)c2c(OCCO)ccc(Cl)c21,5
8,CCCOc1ccc(Br)c2c1B(O)O[C@@H]2CN,0.38
9,NCC1OB(O)c2c(OCc3ccccc3)ccc(Cl)c21 (stereo not drawn),5
10,CCOc1ccc(Cl)c2c1B(O)O[C@@H]2CN,0.3
11,NC[C@H]1OB(O)c2c(OCCO)ccc(Br)c21,0.08
12,CCCOc1ccc(Cl)c2c1B(O)O[C@@H]2CN,0.16
13,NCC1OB(O)c2c(OCCc3ccccc3)ccc(Cl)c21 (stereo not drawn),5
14,CCCCOc1ccc(Br)c2c1B(O)O[C@@H]2CN,0.45
15,NC[C@@H]1OB(O)c2c(OCCO)ccc(Br)c21,10

# Test system: Mycobacterium tuberculosis
# Experiment: Antibacterial activity against fluoroquinolone-resistant Mycobacterium tuberculosis H37Rv assessed as reduction in bacterial growth measured after 16 to 18 hrs by serial dilution method
# Type: functional
# Settings: time 16-18 hrs
row,SMILES,MIC90 [µg/mL]
1,COc1c(N2CCNC(C)C2)c(F)cc2c(=O)c(C(=O)O)cn(C3CC3)c12 (stereo not drawn) [GATIFLOXACIN],0.06

# Test system: Mycobacterium tuberculosis
# Experiment: Antitubercular activity against Multi-drug resistant Mycobacterium tuberculosis assessed as inhibition of bacterial growth incubated for 14 days by broth microdilution method
# Type: functional
# Settings: 336 h, time 14 day
row,SMILES,MIC50 [µg/mL]
1,COc1ncccc1Nc1cc2nc3ccccc3n(-c3ccc(OC(F)(F)F)cc3)c-2c/c1=N\C1CCC(OC)CC1 (stereo not drawn),0.06
2,CC(C)/N=c1\cc2n(-c3ccc(Cl)cc3)c3ccccc3nc-2cc1Nc1ccc(Cl)cc1 [CLOFAZIMINE],0.12
